Reference: paper PMC6982996, “Discovery of [1,2,4]Triazole Derivatives as New Metallo-β-Lactamase Inhibitors” (Molecules, 2019)

Assays:
Assay type in all cases: biochemical
[1] = test system: VIM-5; assay: VIM-5 inhibition assay (FC5 fluorogenic substrate); conditions: @ 100 μM; mean ± SD (n = 3)
Experimental: (§1) Then, we tested all the target compounds against other B1 MBL enzymes, including NDM-1, IMP-1, VIM-1, and VIM-5 (Table 1); all the assay conditions (including enzyme/substrate concentrations) are the same as that previously used. […]. […].
(§2) All the target compounds were freshly prepared in 100 mM DMSO stock solutions. All the MBL and SBL enzymes used in this study were obtained from our collaborator, Li’s Laboratory in Sichuan University. Each compound was initially evaluated for inhibitory activity to MBL and SBL enzymes at 100 and 10 μM, by preincubation with the appropriate amount of enzymes in the assay buffer for 10 min, followed by adding the substrate FC5 to initiate the reactions, and monitoring the fluorescence at λex of 380 nm and λem of 460 nm. The IC50 values for the compounds (with 10 different concentrations in threefold dilution) were further determined. All determinations were tested in triplicate. The IC50 values were obtained from the plot of activity versus inhibitor concentration by using the GraphPad Prism software.

[2] = molecular target: T1, VIM-1 (Pseudomonas aeruginosa, UniProt A0A0F7KYQ8); assay: VIM-1 inhibition assay (FC5 fluorogenic substrate); conditions: @ 100 μM; mean ± SD (n = 3)
T1 construct: Li's Laboratory, Sichuan University (collaborator, a gift and not a purchase)
Experimental: as §1, §2

[3] = molecular target: T2, VIM-2 (Escherichia coli, UniProt Q5U7L7); assay: VIM-2 inhibition assay (FC5 fluorogenic substrate); conditions: for IC50: 10 concentrations in threefold dilution, triplicate, read-out: IC50 against VIM-2; for inhibition at 10 µM / inhibition at 100 µM: mean ± SD (n = 3)
T2 construct: Li's Laboratory, Sichuan University (collaborator, a gift and not a purchase)
Experimental: as §2

[4] = molecular target: T3, NDM-1 (Klebsiella pneumoniae, UniProt C7C422); assay: NDM-1 inhibition assay (FC5 fluorogenic substrate); conditions: mean ± SD (n = 3)
T3 construct: Li's Laboratory, Sichuan University (collaborator, a gift and not a purchase)
Experimental: as §1, §2

[5] = molecular target: T4, IMP-1 (Serratia marcescens, UniProt P52699); assay: IMP-1 inhibition assay (FC5 fluorogenic substrate); conditions: mean ± SD (n = 3)
T4 construct: Li's Laboratory, Sichuan University (collaborator, a gift and not a purchase)
Experimental: as §1, §2

T3 sequence (C7C422 29-270, looked up, species assumed): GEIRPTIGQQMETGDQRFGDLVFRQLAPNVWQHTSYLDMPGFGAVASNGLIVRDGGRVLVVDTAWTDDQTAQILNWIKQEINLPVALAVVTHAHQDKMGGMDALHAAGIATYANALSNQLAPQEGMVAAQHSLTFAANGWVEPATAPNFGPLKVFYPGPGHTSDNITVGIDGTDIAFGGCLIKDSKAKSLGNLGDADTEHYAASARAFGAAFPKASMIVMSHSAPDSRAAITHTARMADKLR
T4 sequence (P52699 19-246 limits assumed): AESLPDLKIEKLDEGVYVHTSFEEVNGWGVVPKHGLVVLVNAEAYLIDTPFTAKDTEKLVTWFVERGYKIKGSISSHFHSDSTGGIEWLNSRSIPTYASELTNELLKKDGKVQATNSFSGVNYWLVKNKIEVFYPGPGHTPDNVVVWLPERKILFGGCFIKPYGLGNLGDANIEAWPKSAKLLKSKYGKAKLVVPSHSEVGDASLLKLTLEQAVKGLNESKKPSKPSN

Structure (SMILES)	Inhibition % VIM-5 [1]	inhibition at 100 µM [2] [%]	IC50 [3] [µM]	inhibition at 10 µM [3] [%]	inhibition at 100 µM [3] [%]	inhibition at 10 µM [4] [%]	inhibition at 100 µM [4] [%]	inhibition at 10 µM [5] [%]	inhibition at 100 µM [5] [%]
c1ccc(-c2nnc3n2CCCS3)cc1 [5a, 3-Phenyl-6,7-dihydro-5H-[1,2,4]triazolo[3,4-b][1,3]thiazine]	1 ± 1/– %	29 ± 2	~179	17	~50	3	29 ± 1		
Cc1ccccc1-c1nnc2n1CCCS2 [5b, 3-(O-Tolyl)-6,7-dihydro-5H-[1,2,4]triazolo[3,4-b][1,3]thiazine]	12 ± 2/– %	21 ± 3		34	45 ± 5	27	32 ± 4	21	25 ± 1
Brc1ccccc1-c1nnc2n1CCCS2 [5c, 3-(2-Bromophenyl)-6,7-dihydro-5H-[1,2,4]triazolo[3,4-b][1,3]thiazine]	13 ± 2/– %	19 ± 2		26	43 ± 5	17	8 ± 1	16	15 ± 1
COc1ccccc1-c1nnc2n1CCCS2 [5d, 3-(2-Methoxyphenyl)-6,7-dihydro-5H-[1,2,4]triazolo[3,4-b][1,3]thiazine]	7 ± 1/– %	27 ± 2		16	39 ± 3	6	15 ± 1		
Fc1cccc(-c2nnc3n2CCCS3)c1 [5e, 3-(3-Fluorophenyl)-6,7-dihydro-5H-[1,2,4]triazolo[3,4-b][1,3]thiazine]	6 ± 1/– %	22 ± 3		15	34 ± 3	20	10 ± 2	4	8 ± 1
Clc1cccc(-c2nnc3n2CCCS3)c1 [5f, 3-(3-Chlorophenyl)-6,7-dihydro-5H-[1,2,4]triazolo[3,4-b][1,3]thiazine]	−9 ± 2/– %	32 ± 1		16	42 ± 2	22	17 ± 1		
Ic1cccc(-c2nnc3n2CCCS3)c1 [5h, 3-(3-Iodophenyl)-6,7-dihydro-5H-[1,2,4]triazolo[3,4-b][1,3]thiazine]	−5 ± 2/– %	27 ± 3		7	33 ± 2	10	9 ± 1		
FC(F)(F)c1cccc(-c2nnc3n2CCCS3)c1 [5i, 3-(3-(Trifluoromethyl)phenyl)-6,7-dihydro-5H-[1,2,4]triazolo[3,4-b][1,3]thiazine]	21 ± 2/– %	29 ± 3	> 100	35	52 ± 4	9	26 ± 1	11	12 ± 1
Fc1ccc(-c2nnc3n2CCCS3)cc1 [5j, 3-(4-Fluorophenyl)-6,7-dihydro-5H-[1,2,4]triazolo[3,4-b][1,3]thiazine]	14 ± 1/– %	27 ± 1		32	34 ± 3	23 ± 2	23 ± 2	13	8 ± 1
Clc1ccc(-c2nnc3n2CCCS3)cc1 [5k, 3-(4-Chlorophenyl)-6,7-dihydro-5H-[1,2,4]triazolo[3,4-b][1,3]thiazine]	12 ± 1/– %	28 ± 2	47.2	58	84 ± 6	17	14 ± 1	5	7 ± 1
Ic1ccc(-c2nnc3n2CCCS3)cc1 [5m, 3-(4-Iodophenyl)-6,7-dihydro-5H-[1,2,4]triazolo[3,4-b][1,3]thiazine]	2 ± 1/– %	34 ± 1	> 100	44	78 ± 5	4	1 ± 1		
